The source of these data is US20150057180A1, “Methods and Kits for Analyzing Biomarkers in a Signal Transduction Pathway” (BioScale, Inc., priority 2012, published 2015).

“Also recorded” adds a separate entry of the source.

Experiment [1] concerns pp38. Put plainly: AMMP pp38 assay, A431 cells.
Method: (§1) TPER was supplemented with phosphatase and protease inhibitors (ThermoFisher/Pierce) as described by the manufacturer. The cells were lysed by pipetting the TPER on the adhesion cell layer, or onto the cell pellet in the case of Jurkat cells. Cell lysates were collected into conical tubes, placed on ice, and vortexed every 5 minutes for a total of 20 minutes before aliquoting and freezing on dry ice. A standard BCA protein assay was used to determine total protein concentration of the lysates.
(§2) AMMP Assay Design: These studies were designed using AMMP® (Acoustic Membrane Microparticle Assay) as run on the ViBE® workstation (BioScale). Assays were constructed so that strepavidin coated magnetic microparticles were loaded with analyte-specific biotinylated antibody and the solution phase sandwich partner antibody was conjugated with fluorescein. The complex of bead-analyte and fluorescien-labeled antibody was detected by the anti-fluorescein antibody-coated acoustic membrane of the VIBE.
(§3) Assay Set-Up: Cell lysates were thawed on ice then centrifuged at 14,000 RPM. Forty microliters of diluted cell lysates were pipetted in to the appropriate well of each plate with forty microliters of sample diluent. Also to each well, a total of forty microliters of a mixture of 1.5×10^5 magnetic beads and 200 ng/ml of fluorescein labeled detector antibody were added. […]
Experiment [2] concerns pAKT1. Put plainly: AMMP pAKT1 assay, A431 cells. The following applies: inhibitor (Neratinib 92 nM) 2 hours prior to EGF 100 ng/ml 10 minutes.
Method: as §1, §2, §3
Experiment [3] relates to pHER3. Put plainly: AMMP pHER3 assay, A431 cells. The following applies: for EGF stimulated phosphorylation of HER3: inhibitor (Afatinib 13 nM, Gefitinib 37 nM or Neratinib 92 nM) 2 hours prior to EGF 100 ng/ml 10 minutes.
From the text: as §2
(§4) Assay Set-Up: Cell lysates were thawed on ice then centrifuged at 14,000 RPM. Forty microliters of diluted cell lysates were pipetted in to the appropriate well of each plate with forty microliters of sample diluent. Also to each well, a total of forty microliters of a mixture of 1.5×10^5 magnetic beads and 200 ng/ml of fluorescein labeled detector antibody were added. Separate wells were loaded with beads and lysates alone to serve as negative controls. The plates were loaded on the VIBE workstation (BioScale Inc., Lexington, Mass.) and incubated for 4 hours prior to analysis.
Experiment [4] concerns pERK1/2. Put plainly: AMMP pERK1/2 assay, MCF-7 cells. The following applies: for EGF stimulated phosphorylation of ERK1/2: inhibitor (Afatinib 13 nM, Gefitinib 37 nM or Neratinib 92 nM) 2 hours prior to EGF 100 ng/ml 10 minutes.
From the text: as §2, §4
Experiment [5] deals with pHER3. The experiment can be described thus: AMMP pHER3 assay, MCF-7 cells.
Method: as §1, §2, §4
Experiment [6] concerns pAKT1. Put plainly: AMMP pAKT1 assay, MCF-7 cells.
Method: as §1, §2, §3
In experiment [7] the test system is pERK1/2. Put plainly: AMMP pERK1/2 assay, A431 cells.
From the text: as §2, §4
For experiment [8], the system named is pJNK. The experiment can be described thus: AMMP pJNK assay, A431 cells.
Method: as §1, §2, §4
In experiment [9] the test system is pp38. The experiment can be described thus: AMMP pp38 assay, MCF-7 cells.
Method: as §1, §2, §3
Experiment [10] deals with pMEK1. The experiment can be described thus: AMMP pMEK1 assay, MCF-7 cells.
From the text: as §2, §4
For experiment [11], the system named is pMEK1. The experiment can be described thus: AMMP pMEK1 assay, A431 cells.
From the text: as §2, §4
In experiment [12] the test system is pJNK. Put plainly: AMMP pJNK assay, MCF-7 cells. The class given is cell-based, human. The following applies: EGF 100 ng/ml for 10 minutes vs no treatment.
Method: as §1, §2, §3
Another experiment deals with phosphorylated p38. Put plainly: AMMP phospho-p38 assay, A431 cell lysates (Example 5). The class given is cell-based, human. The following applies: EGF-stimulated A431 cells compared to unstimulated A431 cells (FIG. 38). As to the method:
For the sample preparation from A431 cells, the following methods were used. Human epidermoid carcinoma cells A431 (American Type Culture Collection (ATCC), Manassas, Va.; ATCC Catalog No. CRL-1555) were grown to approximately 80% confluence in T75 flasks according to standard cell culture techniques. […] Negative control cells were incubated with serum free medium without stimulant, also for 10 minutes.
Additional scraping was required to release the cells from the plastic. The resulting cell suspension was incubated for approximately 15 minutes on ice with vortexing every five minutes for effective cell lysis. Phosphatase and protease inhibitors (HALT, Thermo Fisher (Pierce)) were included in the detergent cell treatment preparation. Cell lysates were aliquoted and snap frozen on dry ice, and then transferred to a −80° C. freezer until analysis. […]
Cell lysate samples were prepared for the assays by thawing them on ice then clarifying by centrifugation in a microcentrifuge at 14,000 RPM for 10 minutes. […] Negative controls containing the bead only with the samples (no fluoresceinated antibody) were run and the ViBE response was subtracted from the sample signal readings to determine the specific assay signal.

[13] abbreviates: inhibitor (Neratinib 92 nM) 2 hours prior to EGF 100 ng/ml 10 minutes.
Where [14] appears, read: inhibitor (Afatinib 13 nM, Gefitinib 37 nM or Neratinib 92 nM) 2 hours prior to EGF 100 ng/ml 10 minutes, listed as neratinib.
Setting [15] is: EGF 100 ng/ml for 10 minutes vs no treatment.

`CCOc1cc2ncc(C#N)c(Nc3ccc(OCc4ccccn4)c(Cl)c3)c2cc1NC(=O)/C=C/CN(C)C` [Neratinib]: the “EGF stimulated phosphorylation of p38” value in the experiment with pp38 [1] (inhibitor (Afatinib 13 nM, Gefitinib 37 nM or Neratinib 92 nM) 2 hours prior to EGF 100 ng/ml 10 minutes) was “largely unaffected”; in the experiment with pp38 [9] (setting [13]), “slight loss in phosphorylation”. Besides, the figures for the “EGF stimulated phosphorylation of AKT1” value in the experiment on pAKT1 [2] and with pAKT1 [6] (setting [13]) were “largely unaffected” and “slight loss in phosphorylation”, respectively. The “EGF stimulated phosphorylation of HER3” value is listed as “largely inhibit” in the experiment on pHER3 [3], “highly effective” in the experiment on pHER3 [3] (listed as neratinib) and “only partially inhibited” in the experiment on pHER3 [5] (setting [13]). Further, the “EGF stimulated phosphorylation of ERK1/2” value is recorded as “inhibitory effects” in the experiment on pERK1/2 [4] and “no such effect; also recorded: much less than expected” with pERK1/2 [7] (setting [14]). Moreover, the “EGF stimulated phosphorylation of JNK” value in the experiment on pJNK [8] (setting [13]) is listed as “largely unaffected”. Also, the “EGF stimulated phosphorylation of MEK1” value is on record as “inhibitory effects; also recorded: partially inhibited” with pMEK1 [10] (setting [13]) and “no such effect; also recorded: much less than expected” in the experiment on pMEK1 [11] (setting [14]).

On to `COc1cc2ncnc(Nc3ccc(F)c(Cl)c3)c2cc1OCCCN1CCOCC1` [gefitinib, Gefitinib], for which the “EGF stimulated phosphorylation of ERK1/2” value in the experiment on pERK1/2 [4] is “inhibited”.

With epidermal growth factor [EGF], the “phosphorylation of p38 on EGF stimulation” value in the experiment with pp38 [1] (setting [15]) is “led to phosphorylation”; with pp38 [9] (setting [15]) it was “moderate phosphorylation of p38”. The entries for the “phosphorylation of HER3 on EGF stimulation” value in the experiment on pHER3 [3] (setting [15]) and in the experiment on pHER3 [5] (setting [15]) were “increased with EGF stimulation; also recorded: high even in non-treated A431 cells” and “little phosphorylation was observed; also recorded: resulted in phosphorylation”, respectively. Also, the entries for the “phosphorylation of ERK1/2 on EGF stimulation” value in the experiment with pERK1/2 [4] (setting [15]) and in the experiment on pERK1/2 [7] (setting [15]) were “detected phosphorylation of ERK1/2; also recorded: detected to a lesser degree; also recorded: resulted in phosphorylation” and “predominated the signaling pathway; also recorded: easily detected; also recorded: led to phosphorylation”, respectively. In addition, the “phosphorylation of JNK on EGF stimulation” value with pJNK [12] and in the experiment with pJNK [8] (setting [15]) was “no change in JNK; also recorded: No phosphorylation of JNK” each time. Besides, the “phosphorylation of AKT1 on EGF stimulation” value in the experiment with pAKT1 [6] (setting [15]) is on record as “small amount of AKT1 phosphorylation”. The “amount of phospho-p38” value in the experiment on phosphorylated p38 was “dramatic increase”. In addition, the “phosphorylation of MEK1 on EGF stimulation” value was “modest phosphorylation of MEK1; also recorded: resulted in phosphorylation” in the experiment with pMEK1 [10] (setting [15]) and “Strong phosphorylation of MEK1; also recorded: led to phosphorylation” with pMEK1 [11] (setting [15]).
